Results reported in the supplement of paper PMC10307832.

Tests used:
Assay in all cases: relative viability (nuclei count vs DMSO), 5 days (fraction); higher = more cells survive
Gemcitabine + Dasatinib = compound: Nc1ccn([C@@H]2O[C@H](CO)[C@@H](O)C2(F)F)c(=O)n1 [Gemcitabine] + Cc1nc(Nc2ncc(C(=O)Nc3c(C)cccc3Cl)s2)cc(N2CCN(CCO)CC2)n1 [Dasatinib] (partner 0.075 µM)
Procedure, shortened: (§1)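 Medians of duplicate plates are given as relative viability. That measure is the nuclei count in treated wells divided by the count in vehicle wells. Counts were taken on 4× images of lung cancer cell lines in 1536-well plates, 5 days after pin-tool dosing the day after seeding with one drug alone or a fixed anchor-drug dose plus five library-drug doses (not always all listed) in √10 steps.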

Gemcitabine + Vorinostat = compound: Nc1ccn([C@@H]2O[C@H](CO)[C@@H](O)C2(F)F)c(=O)n1 [Gemcitabine] + O=C(CCCCCCC(=O)Nc1ccccc1)NO [Vorinostat] (partner 1 µM)
Procedure, shortened: as §1

Gemcitabine + Crizotinib = compound: Nc1ccn([C@@H]2O[C@H](CO)[C@@H](O)C2(F)F)c(=O)n1 [Gemcitabine] + C[C@@H](Oc1cc(-c2cnn(C3CCNCC3)c2)cnc1N)c1c(Cl)ccc(F)c1Cl [Crizotinib] (partner 1 µM)
Procedure, shortened: as §1

Gemcitabine + Pictilisib = compound: Nc1ccn([C@@H]2O[C@H](CO)[C@@H](O)C2(F)F)c(=O)n1 [Gemcitabine] + CS(=O)(=O)N1CCN(Cc2cc3nc(-c4cccc5[nH]ncc45)nc(N4CCOCC4)c3s2)CC1 [Pictilisib] (partner 1 µM)
Procedure, shortened: as §1

| Cell Line | relative viability (Gemcitabine + Dasatinib; first compound 0.001 µM) | relative viability (Gemcitabine + Dasatinib; first compound 0.003162 µM) | relative viability (Gemcitabine + Dasatinib; first compound 0.01 µM) | relative viability (Gemcitabine + Dasatinib; first compound 0.03162 µM) | relative viability (Gemcitabine + Dasatinib; first compound 0.1 µM) | relative viability (Gemcitabine + Vorinostat; first compound 0.001 µM) | relative viability (Gemcitabine + Vorinostat; first compound 0.003162 µM) | relative viability (Gemcitabine + Vorinostat; first compound 0.01 µM) | relative viability (Gemcitabine + Vorinostat; first compound 0.03162 µM) | relative viability (Gemcitabine + Vorinostat; first compound 0.1 µM) | relative viability (Gemcitabine + Crizotinib; first compound 0.001 µM) | relative viability (Gemcitabine + Crizotinib; first compound 0.003162 µM) | relative viability (Gemcitabine + Crizotinib; first compound 0.01 µM) | relative viability (Gemcitabine + Crizotinib; first compound 0.03162 µM) | relative viability (Gemcitabine + Crizotinib; first compound 0.1 µM) | relative viability (Gemcitabine + Pictilisib; first compound 0.001 µM) | relative viability (Gemcitabine + Pictilisib; first compound 0.003162 µM) | relative viability (Gemcitabine + Pictilisib; first compound 0.01 µM) | relative viability (Gemcitabine + Pictilisib; first compound 0.03162 µM) | relative viability (Gemcitabine + Pictilisib; first compound 0.1 µM) |
| --- | --- | --- | --- | --- | --- | --- | --- | --- | --- | --- | --- | --- | --- | --- | --- | --- | --- | --- | --- | --- |
| NCI-H3122 | 0.852 | 0.89 | 0.588 | 0.0797 | 0.0782 | 0.926 | 1.09 | 0.618 | 0.202 | 0.098 | 0.306 | 0.27 | 0.253 | 0.135 | 0.119 | 0.648 | 0.595 | 0.553 | 0.265 | 0.159 |
| PC-3 [JPC-3] | 1.01 | 0.925 | 0.635 | 0.252 | 0.207 | 0.659 | 0.536 | 0.36 | 0.338 | 0.366 | 1 | 0.838 | 0.611 | 0.295 | 0.246 | 0.847 | 0.61 | 0.514 | 0.33 | 0.286 |
| PC-14 | 0.262 | 0.12 | 0.0174 | 0.0131 | 0.016 | 0.82 | 0.165 | 0.0458 | 0.0558 | 0.0381 | 0.903 | 0.569 | 0.308 | 0.0832 | 0.0612 | 0.684 | 0.435 | 0.139 | 0.036 | 0.0292 |
| RERF-LC-KJ | 0.837 | 0.879 | 0.768 | 0.291 | 0.19 | 0.661 | 0.682 | 0.709 | 0.452 | 0.246 | 0.901 | 0.866 | 0.844 | 0.73 | 0.252 | 0.775 | 0.458 | 0.408 | 0.304 | 0.168 |
| SK-LU-1 | 0.165 | 0.123 | 0.106 | 0.112 | 0.131 | 0.753 | 0.339 | 0.267 | 0.251 | 0.252 | 1.02 | 0.364 | 0.258 | 0.208 | 0.252 | 0.6 | 0.537 | 0.213 | 0.172 | 0.192 |
| SK-MES-1 | 0.297 | 0.171 | 0.116 | 0.119 | 0.114 | 0.839 | 0.254 | 0.181 | 0.185 | 0.178 | 0.923 | 0.809 | 0.221 | 0.179 | 0.164 | 0.333 | 0.254 | 0.164 | 0.136 | 0.149 |
| SW 1573 | 0.481 | 0.258 | 0.0669 | 0.0389 | 0.0494 | 0.75 | 0.591 | 0.122 | 0.0661 | 0.0393 | 0.997 | 0.728 | 0.202 | 0.12 | 0.0565 | 0.543 | 0.272 | 0.178 | 0.086 | 0.0746 |
| UMC-11 | 0.464 | 0.516 | 0.415 | 0.368 | 0.223 | 0.339 | 0.505 | 0.425 | 0.256 | 0.152 | 0.746 | 0.574 | 0.598 | 0.549 | 0.233 | 0.942 | 0.908 | 0.821 | 0.714 | 0.228 |
